Values quoted from earlier work in patent US20240082224A1, “METHODS OF TREATING HEMATOLOGICAL MALIGNANCY USING NANOPARTICLE MTOR INHIBITOR COMBINATION THERAPY” (Abraxis BioScience, LLC, priority 2015, published 2024).

How the values were obtained:
[1] = in vivo
ABCB1 = ABCB1 (Homo sapiens, UniProt P08183)
ABCG2 = molecular target: T1, ABCG2 (Homo sapiens, UniProt Q9UNQ0)
T1 sequence (Q9UNQ0 1-655): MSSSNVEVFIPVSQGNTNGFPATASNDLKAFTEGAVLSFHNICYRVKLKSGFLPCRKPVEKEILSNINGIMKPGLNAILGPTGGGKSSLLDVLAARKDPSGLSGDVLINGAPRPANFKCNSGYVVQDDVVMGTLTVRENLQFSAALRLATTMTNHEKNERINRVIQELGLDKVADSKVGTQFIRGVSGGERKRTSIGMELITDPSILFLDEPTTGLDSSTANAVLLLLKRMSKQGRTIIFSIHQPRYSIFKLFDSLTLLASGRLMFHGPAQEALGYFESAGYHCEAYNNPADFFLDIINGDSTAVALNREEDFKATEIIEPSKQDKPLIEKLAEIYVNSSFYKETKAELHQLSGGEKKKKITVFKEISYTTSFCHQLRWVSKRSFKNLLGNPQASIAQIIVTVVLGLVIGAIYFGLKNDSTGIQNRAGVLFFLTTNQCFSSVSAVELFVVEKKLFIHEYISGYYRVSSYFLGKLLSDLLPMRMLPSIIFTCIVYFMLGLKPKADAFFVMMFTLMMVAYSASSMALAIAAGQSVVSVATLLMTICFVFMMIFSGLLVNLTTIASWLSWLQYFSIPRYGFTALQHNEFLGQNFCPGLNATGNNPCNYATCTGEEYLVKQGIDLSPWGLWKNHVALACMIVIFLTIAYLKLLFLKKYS

Sequence of ABCB1 (P08183 whole entry, species assumed): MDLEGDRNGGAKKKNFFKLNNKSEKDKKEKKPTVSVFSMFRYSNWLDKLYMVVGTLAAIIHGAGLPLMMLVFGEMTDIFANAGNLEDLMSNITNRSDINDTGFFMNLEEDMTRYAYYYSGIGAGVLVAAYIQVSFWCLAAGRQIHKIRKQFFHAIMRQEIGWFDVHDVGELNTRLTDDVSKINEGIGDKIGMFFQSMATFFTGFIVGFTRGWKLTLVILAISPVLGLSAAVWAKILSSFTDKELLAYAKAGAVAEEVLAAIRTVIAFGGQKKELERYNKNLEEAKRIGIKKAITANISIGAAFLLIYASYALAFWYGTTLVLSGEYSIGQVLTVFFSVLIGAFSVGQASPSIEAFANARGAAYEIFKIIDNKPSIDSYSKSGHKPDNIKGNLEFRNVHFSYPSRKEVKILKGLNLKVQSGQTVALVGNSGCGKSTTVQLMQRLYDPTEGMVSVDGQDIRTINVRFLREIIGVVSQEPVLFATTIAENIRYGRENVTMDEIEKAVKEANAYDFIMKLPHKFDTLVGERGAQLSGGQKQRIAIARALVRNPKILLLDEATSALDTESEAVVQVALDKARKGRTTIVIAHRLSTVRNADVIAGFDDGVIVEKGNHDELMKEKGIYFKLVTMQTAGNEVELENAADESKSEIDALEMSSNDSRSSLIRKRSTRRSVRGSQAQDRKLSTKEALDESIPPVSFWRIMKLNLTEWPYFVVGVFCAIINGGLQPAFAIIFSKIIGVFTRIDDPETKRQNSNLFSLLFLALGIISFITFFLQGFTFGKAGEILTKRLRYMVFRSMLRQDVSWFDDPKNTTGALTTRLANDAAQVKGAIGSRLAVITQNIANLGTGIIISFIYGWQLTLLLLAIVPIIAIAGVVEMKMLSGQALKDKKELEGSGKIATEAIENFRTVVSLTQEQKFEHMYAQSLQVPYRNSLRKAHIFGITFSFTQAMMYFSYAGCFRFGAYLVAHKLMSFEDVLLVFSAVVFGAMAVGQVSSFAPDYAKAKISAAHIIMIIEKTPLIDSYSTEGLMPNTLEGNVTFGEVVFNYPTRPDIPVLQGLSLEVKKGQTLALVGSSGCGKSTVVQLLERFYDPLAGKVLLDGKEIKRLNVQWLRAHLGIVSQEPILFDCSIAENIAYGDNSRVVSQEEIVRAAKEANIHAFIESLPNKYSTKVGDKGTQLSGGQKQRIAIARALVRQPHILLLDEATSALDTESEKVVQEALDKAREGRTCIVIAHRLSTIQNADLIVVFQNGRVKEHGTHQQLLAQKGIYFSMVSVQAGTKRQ

| Compound | brain penetration [1] | affinity for ABCB1 (ABCB1) | affinity for ABCG2 (ABCG2) | CML patients who respond (CML patients; imatinib) | patients progressing to advanced disease (CML patients; within 5 years) |
| --- | --- | --- | --- | --- | --- |
| COc1ccc(COc2cc3oc(=O)c4cc(C(C)O)ccc4c3cc2OC)cc1 (centres unmarked) [Palomid 529] | good brain penetration | lacks affinity | lacks affinity | – | – |
| Cc1ccc(NC(=O)c2ccc(CN3CCN(C)CC3)cc2)cc1Nc1nccc(-c2cccnc2)n1 [imatinib] | – | – | – | 80% | under 3% |
